The values that follow come from patent US20090088377A1, “CYSTEIC ACID DERIVATIVES OF ANTI-VIRAL PEPTIDES” (priority 2007, published 2009).

The test system of one assay is HIV-1 IIIB. In words: Anti-HIV efficacy evaluation in fresh human PBMCs (albumin conjugates vs original peptides). In kind it is cell-based. Conditions: NA = IC50 not achieved. The procedure:
HIV-1 IIIB was obtained through the AIDS Research and Reference Reagent Program, Division of AIDS, NIAID, NIH courtesy of Dr. Robert C. […] Fresh human peripheral blood mononuclear cells (PBMCs), seronegative for HIV and HBV, were isolated from blood of screened donors (Biological Specialty Corporation; Colmar, Pa.) using Lymphocyte Separation Medium (LSM; Cellgro® by Mediatech, Inc.; density 1.078+/−0.002 g/ml) following the manufacturer's instructions. Cells were stimulated by incubation in 4 μg/mL Phytohemagglutinin (PHA; Sigma) for 48-72 hours. Mitogenic stimulation was maintained by the addition of 20 U/mL recombinant human IL-2 (R&D Systems, Inc) to the culture medium. PHA-stimulated PBMCs from at least two donors were pooled, diluted in fresh medium and added to 96-well plates at 5×10^4 cells/well. Cells were infected (final MOI≅0.1) in the presence of 9 different concentrations of test compounds (triplicate wells/concentration) and incubated for 7 days. […] Following removal of supernatant samples, compound cytotoxicity was measured by the addition of 3-(4,5-dimethylthiazol-2-yl)-5-(3-carboxymethoxyphenyl)-2-(4-sulfophenyl)-2H-tetrazolium (MTS; CellTiter 96 Reagent, Promega) following the manufacturer's instructions. […] AZT (nucleoside reverse transcriptase inhibitor) was used as the assay control compound.

The test system of assay [1] is NL4-3 with DIV (G36D) mutation in gp41. Conditions: NL4-3, in vitro; cited from earlier work.
Assay [2] has as its target HIV-1 transmembrane glycoprotein gp41 (strain HIV-1 IIIB) (HIV-1 strain IIIB) (UniProt P04578). The assay is described as follows: cell-based or functional assay.
In another assay the test system is HPIV-3. The following applies: HPIV-3-infected Hep2 cells and uninfected CV-1W cells; cited from earlier work.
Another assay deals with RSV. The following applies: RSV-infected and uninfected Hep-2 cells; cited from earlier work.
The mark [3] stands for this setting: HIV-1 IIIB in PHA-stimulated PBMCs, 7 days.

Broadly, the IC50 is the point on the concentration scale where inhibition reaches its midpoint. The IC90 is the concentration needed for an effect of 90%. A high value points to weaker potency. With `Cc1cn([C@H]2C[C@H](N=[N+]=[N-])[C@@H](CO)O2)c(=O)[nH]c1=O` [AZT], in the assay on HIV-1 IIIB (setting [3]), the IC50 came to 2.9 nM and it took 26.9 nM to reach the 90% level (IC90). Further, the “Selectivity Index” value in the assay with HIV-1 IIIB (from TC50 (MTS) and IC50 in PBMCs) is >346.

For the molecule enfuvirtide, in assay [1], the “Resistance conferred by the DIV (G36D) mutation in gp41” value was 8 fold.

In turn, C34 peptide came in with an IC50 (50% inhibition of virus replication), HIV-1 IIIB in PBMC in assay [2] of 0.6 nM.

On to “T-20 (DP-178, enfuvirtide, Fuzeon) (peptide)”, for which, in assay [2], the IC50 (50% inhibition of virus replication), HIV-1 IIIB in PBMC was determined as 2.2 nM and the IC90 (90% inhibition of virus replication), HIV-1 IIIB in PBMC was found to be 9.5 nM.

As to “NSVALDPIDISIELNKAKSDLEESKEWIRRSNQKL [SEQ ID NO:27]”, the “Concentration inhibiting fusion and syncytia formation” value in the assay on HPIV-3 is listed as “less than 1 μg/ml”.

As to “IALLSTNKAVVSLSNGVSVLTSKVLDLKNYIDK [SEQ ID NO:24]”, the “Concentration inhibiting fusion and syncytia formation” value in the assay on RSV was “less than 50 μg/ml”.
